Where two headings read alike, the source gives them in different places.
What was measured:
mTORC1 (mTOR/GbL/Raptor) = mTORC1 (mTOR/GbL/Raptor) (Homo sapiens, UniProt P42345); assay: mTOR/GbL/Raptor (mTORC1) ELISA Assay; type: biochemical; conditions: 0.2 nM mTORC1, 10 μM ATP, 50 nM NHis-tagged 4E-BP1, phosphorylation of 4E-BP1
In short: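 Detection used Ni-chelate capture of His-tagged 4E-BP1, then anti-phospho-4E-BP1 and HRP anti-IgG with luminescent ELISA substrate. Reactions ran 120 min at ambient temperature with 0.2 nM mTORC1, 10 μM ATP, 50 nM 4E-BP1, 10 mM MnCl2, pH 7.2 Hepes.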

PI3Kα = PI3Kα (Homo sapiens, UniProt P42336); assay: PI3K Biochemical Assays (ATP consumption, luciferase-luciferin chemiluminescence); conditions: PI3Kα 1.5 nM, ATP 1 μM, PIP2 10 μM; percent of ATP consumed
In short: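 Enzyme (1.5 nM), PIP2 substrate (10 μM) and ATP (1 μM) react about 2 h at room temperature in Tris buffer pH 7.5 with MgCl2, EGTA, DTT and CHAPS. Remaining ATP detected by Kinase-Glo luminescence; total consumption limited to 40-60%.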

Sequence of PI3Kα (P42336 whole entry): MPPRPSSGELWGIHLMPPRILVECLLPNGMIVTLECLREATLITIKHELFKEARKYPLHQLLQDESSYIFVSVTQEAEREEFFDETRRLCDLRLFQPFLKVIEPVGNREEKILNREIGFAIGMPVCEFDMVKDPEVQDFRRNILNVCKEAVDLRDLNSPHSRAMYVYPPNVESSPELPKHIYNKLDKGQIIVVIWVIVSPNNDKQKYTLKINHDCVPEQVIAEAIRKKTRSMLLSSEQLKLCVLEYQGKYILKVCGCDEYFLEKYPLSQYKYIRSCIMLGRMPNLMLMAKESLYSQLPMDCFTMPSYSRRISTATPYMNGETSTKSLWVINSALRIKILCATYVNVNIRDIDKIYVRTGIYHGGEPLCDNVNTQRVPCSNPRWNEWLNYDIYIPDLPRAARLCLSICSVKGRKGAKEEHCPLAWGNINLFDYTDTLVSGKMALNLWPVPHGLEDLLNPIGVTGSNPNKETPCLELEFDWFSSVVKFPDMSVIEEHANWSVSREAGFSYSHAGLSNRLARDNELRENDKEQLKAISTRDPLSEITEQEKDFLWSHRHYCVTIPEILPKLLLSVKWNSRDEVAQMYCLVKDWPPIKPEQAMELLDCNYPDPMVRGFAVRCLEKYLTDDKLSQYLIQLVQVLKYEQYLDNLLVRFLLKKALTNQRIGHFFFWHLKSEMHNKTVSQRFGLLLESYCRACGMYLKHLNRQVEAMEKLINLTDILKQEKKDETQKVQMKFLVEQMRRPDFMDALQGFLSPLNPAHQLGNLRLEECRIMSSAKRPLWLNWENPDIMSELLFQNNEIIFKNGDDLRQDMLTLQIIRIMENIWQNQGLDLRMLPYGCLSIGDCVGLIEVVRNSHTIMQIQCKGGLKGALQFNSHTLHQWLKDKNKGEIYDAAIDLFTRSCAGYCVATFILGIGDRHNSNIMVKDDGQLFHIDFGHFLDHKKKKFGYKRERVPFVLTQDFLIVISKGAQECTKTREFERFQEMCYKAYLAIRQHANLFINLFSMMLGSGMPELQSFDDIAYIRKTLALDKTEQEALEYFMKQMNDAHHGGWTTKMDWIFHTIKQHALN
Sequence of PI3Kα (P27986 whole entry partner): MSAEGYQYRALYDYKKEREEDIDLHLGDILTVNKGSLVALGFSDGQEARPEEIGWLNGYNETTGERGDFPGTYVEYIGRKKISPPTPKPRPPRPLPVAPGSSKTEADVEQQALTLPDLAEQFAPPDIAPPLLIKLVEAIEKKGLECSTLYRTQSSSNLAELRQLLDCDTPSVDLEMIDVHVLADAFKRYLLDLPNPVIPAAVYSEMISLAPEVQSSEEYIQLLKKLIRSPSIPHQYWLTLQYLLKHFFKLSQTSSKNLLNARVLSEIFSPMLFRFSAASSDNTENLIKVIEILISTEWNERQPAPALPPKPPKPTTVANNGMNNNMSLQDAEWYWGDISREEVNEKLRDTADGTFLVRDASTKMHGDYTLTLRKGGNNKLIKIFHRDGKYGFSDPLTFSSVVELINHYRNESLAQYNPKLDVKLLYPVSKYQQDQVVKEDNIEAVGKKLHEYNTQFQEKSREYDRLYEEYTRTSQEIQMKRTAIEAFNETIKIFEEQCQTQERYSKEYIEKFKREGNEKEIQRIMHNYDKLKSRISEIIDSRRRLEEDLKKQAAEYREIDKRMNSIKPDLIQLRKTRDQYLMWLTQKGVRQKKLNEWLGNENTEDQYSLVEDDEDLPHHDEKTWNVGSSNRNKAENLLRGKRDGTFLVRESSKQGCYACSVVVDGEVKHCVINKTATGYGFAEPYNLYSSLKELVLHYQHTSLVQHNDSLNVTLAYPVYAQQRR

| SMILES | IC50 (mTORC1 (mTOR/GbL/Raptor); read-out: IC50) [µM] | IC50 (PI3Kα) [µM] | IC50 (mTORC1 (mTOR/GbL/Raptor)) |
| --- | --- | --- | --- |
| Cc1nc2ccc(-c3ccc4c(c3)CN(C(=O)N3CC[C@H](CF)C[C@@H]3c3ccc(F)c(F)c3)CCO4)cc2[nH]1 (racemic) [Compound 147, (±)-4-{[(2R,4S)-2-(3,4-difluorophenyl)-4-(fluoromethyl)piperidin-1-yl]carbonyl}-7-(2-methyl-1H-benzimidazol-6-yl)-2,3,4,5-tetrahydro-1,4-benzoxazepine] | 0.25 to 0.7 | 1 to 3 |  |
| Cc1nc2ccc(-c3ccc4c(c3)CN(C(=O)N3CCN(c5ccc(C(F)(F)F)cn5)CC3)CCO4)cc2[nH]1 [Compound 150, 7-(2-methyl-1H-benzimidazol-6-yl)-4-({4-[5-(trifluoromethyl)pyridin-2-yl]piperazin-1-yl}carbonyl)-2,3,4,5-tetrahydro-1,4-benzoxazepine] |  | 0.5 to 1 | not active |
| Cc1nc2ccc(-c3ccc4c(c3)CN(C(=O)N3CCC(Cc5ccc(Cl)cc5)CC3)CCO4)cc2[nH]1 [Compound 69, 4-({4-[(4-chlorophenyl)methyl]piperidin-1-yl}carbonyl)-7-(2-methyl-1H-benzimidazol-6-yl)-2,3,4,5-tetrahydro-1,4-benzoxazepine] | 0.05 to 0.25 | 1 to 3 |  |
| Cc1nc2ccc(-c3ccc4c(c3)CN(C(=O)N3CCCCC3c3ccc(N(C)C)cc3)CCO4)cc2[nH]1 (stereo not shown) [Compound 131, N,N-dimethyl-4-(1-{[7-(2-methyl-1H-benzimidazol-6-yl)-2,3-dihydro-1,4-benzoxazepin-4(5H)-yl]carbonyl}piperidin-2-yl)aniline] | 0.7 to 2.6 | 1 to 3 |  |
| Cc1nc2ccc(-c3ccc4c(c3)CN(C(=O)N3CCC(c5ccccc5)C3)CCO4)cc2[nH]1 (stereo not shown) [Compound 98, 7-(2-methyl-1H-benzimidazol-6-yl)-4-[(3-phenylpyrrolidin-1-yl)carbonyl]-2,3,4,5-tetrahydro-1,4-benzoxazepine] | 0.05 to 0.25 | 0.5 to 1 |  |
| CC1CCN(C(=O)N2CCOc3ccc(-c4cnc(N)nc4)cc3C2)CC1 [Compound 3, 5-{4-[(4-methylpiperidin-1-yl)carbonyl]-2,3,4,5-tetrahydro-1,4-benzoxazepin-7-yl}pyrimidin-2-amine] | 0.7 to 2.6 | 1 to 3 |  |
| Cc1nc2ccc(-c3ccc4c(c3)CN(C(=O)N3CCN(c5ccc(F)cc5)CC3)CCO4)cc2[nH]1 [Compound 175, 4-{[4-(4-fluorophenyl)piperazin-1-yl]carbonyl}-7-(2-methyl-1H-benzimidazol-6-yl)-2,3,4,5-tetrahydro-1,4-benzoxazepine] | 0.7 to 2.6 | 1 to 3 |  |
| Cc1nc2ccc(-c3ccc4c(c3)CN(C(=O)N3CCC(C)(C(N)=O)CC3)CCO4)cc2[nH]1 [Compound 135, 4-methyl-1-{[7-(2-methyl-1H-benzimidazol-6-yl)-2,3-dihydro-1,4-benzoxazepin-4(5H)-yl]carbonyl}piperidine-4-carboxamide] | 0.05 to 0.25 | 1 to 3 |  |
| Cc1nc2ccc(-c3ccc4c(c3)CN(C(=O)N(C)Cc3ccccc3)CCO4)cc2[nH]1 [Compound 92, N-methyl-7-(2-methyl-1H-benzimidazol-6-yl)-N-(phenylmethyl)-2,3-dihydro-1,4-benzoxazepine-4(5H)-carboxamide] | 0.05 to 0.25 | 0.5 to 1 |  |
| COC(=O)Nc1nc2ccc(-c3ccc4c(c3)CN(C(=O)N3CCC(C(F)F)CC3)CCO4)cc2[nH]1 [Compound 19, methyl [6-(4-{[4-(difluoromethyl)piperidin-1-yl]carbonyl}-2,3,4,5-tetrahydro-1,4-benzoxazepin-7-yl)-1H-benzimidazol-2-yl]carbamate] | 0.05 to 0.25 | 0.2 to 0.5 |  |
| Cc1nc2ccc(-c3ccc4c(c3)CN(C(=O)N3CCC(c5ccccc5)CC3)CCO4)cc2[nH]1 [Compound 170, 7-(2-methyl-1H-benzimidazol-6-yl)-4-[(4-phenylpiperidin-1-yl)carbonyl]-2,3,4,5-tetrahydro-1,4-benzoxazepine] | 0.05 to 0.25 | 1 to 3 |  |

Second part, the molecule after the results:

| IC50 (mTORC1 (mTOR/GbL/Raptor); read-out: IC50) [µM] | IC50 (PI3Kα) [µM] | IC50 (mTORC1 (mTOR/GbL/Raptor)) | SMILES |
| --- | --- | --- | --- |
| ≤ 0.05 | 0.2 to 0.5 |  | Nc1nc2ccc(-c3ccc4c(c3)CN(C(=O)N3CCC(CF)CC3)CCO4)cc2[nH]1 [Compound 26, 6-(4-{[4-(fluoromethyl)piperidin-1-yl]carbonyl}-2,3,4,5-tetrahydro-1,4-benzoxazepin-7-yl)-1H-benzimidazol-2-amine] |
| 0.25 to 0.7 | 0.2 to 0.5 |  | Cc1nc2ccc(-c3ccc4c(c3)CN(C(=O)N3CCC(=C(F)F)CC3)CCO4)cc2[nH]1 [Compound 137, 4-{[4-(difluoromethylidene)piperidin-1-yl]carbonyl}-7-(2-methyl-1H-benzimidazol-6-yl)-2,3,4,5-tetrahydro-1,4-benzoxazepine] |
| ≤ 0.05 | ≤ 0.075 |  | O=C1CCN(C(=O)N2CCOc3ccc(-c4ccc(-c5ncc[nH]5)cc4)cc3C2)C(c2ccc(F)c(F)c2)C1 (stereo not shown) [Compound 53, 2-(3,4-difluorophenyl)-1-({7-[4-(1H-imidazol-2-yl)phenyl]-2,3-dihydro-1,4-benzoxazepin-4(5H)-yl}carbonyl)piperidin-4-one] |
| ≤ 0.05 | ≤ 0.075 |  | COC(=O)Nc1nc2ncc(-c3ccc4c(c3)CN(C(=O)N3CCC(C(C)(F)F)CC3)CCO4)cc2[nH]1 [Compound 34, methyl [6-(4-{[4-(1,1-difluoroethyl)piperidin-1-yl]carbonyl}-2,3,4,5-tetrahydro-1,4-benzoxazepin-7-yl)-1H-imidazo[4,5-b]pyridin-2-yl]carbamate] |
| ≤ 0.05 | 0.075 to 0.2 |  | Cc1nc2ccc(-c3ccc4c(c3)CN(C(=O)N3CCCCC3c3ccccc3)CCO4)cc2[nH]1 (stereo not shown) [Compound 96, 7-(2-methyl-1H-benzimidazol-6-yl)-4-[(2-phenylpiperidin-1-yl)carbonyl]-2,3,4,5-tetrahydro-1,4-benzoxazepine] |
| 0.05 to 0.25 | ≤ 0.075 |  | COC(=O)Nc1nc2ccc(-c3ccc4c(c3)CN(C(=O)N3CCCCC3c3ccc(F)cc3)CCO4)cc2[nH]1 (stereo not shown) [Compound 12, methyl [6-(4-{[2-(4-fluorophenyl)piperidin-1-yl]carbonyl}-2,3,4,5-tetrahydro-1,4-benzoxazepin-7-yl)-1H-benzimidazol-2-yl]carbamate] |
| ≤ 0.05 | ≤ 0.075 |  | Cc1nc2ccc(-c3ccc4c(c3)CN(C(=O)N3CCCCC3c3cc(F)cc(F)c3)CCO4)cc2[nH]1 (stereo not shown) [Compound 130, 4-{[2-(3,5-difluorophenyl)piperidin-1-yl]carbonyl}-7-(2-methyl-1H-benzimidazol-6-yl)-2,3,4,5-tetrahydro-1,4-benzoxazepine] |
| ≤ 0.05 | 0.075 to 0.2 |  | Cc1nc2ccc(-c3ccc4c(c3)CN(C(=O)N3CCCCC3c3ccc(C)c(F)c3)CCO4)cc2[nH]1 (stereo not shown) [Compound 123, 4-{[2-(3-fluoro-4-methylphenyl)piperidin-1-yl]carbonyl}-7-(2-methyl-1H-benzimidazol-6-yl)-2,3,4,5-tetrahydro-1,4-benzoxazepine] |
| ≤ 0.05 | 0.075 to 0.2 |  | CCNc1nc2ccc(-c3ccc4c(c3)CN(C(=O)N3CCC(CF)CC3)CCO4)cc2[nH]1 [Compound 29, N-ethyl-6-(4-{[4-(fluoromethyl)piperidin-1-yl]carbonyl}-2,3,4,5-tetrahydro-1,4-benzoxazepin-7-yl)-1H-benzimidazol-2-amine] |
| 0.05 to 0.25 | 0.075 to 0.2 |  | COC(=O)Nc1nc2ccc(-c3ccc4c(c3)CN(C(=O)N3CCC(C#N)CC3)CCO4)cc2[nH]1 [Compound 21, methyl (6-{4-[(4-cyanopiperidin-1-yl)carbonyl]-2,3,4,5-tetrahydro-1,4-benzoxazepin-7-yl}-1H-benzimidazol-2-yl)carbamate] |
| ≤ 0.05 | ≤ 0.075 |  | O=C1CCN(C(=O)N2CCOc3ccc(-c4ccc(-c5ncc[nH]5)cc4)cc3C2)C(c2ccc(F)cc2)C1 (stereo not shown) [Compound 54, 2-(4-fluorophenyl)-1-({7-[4-(1H-imidazol-2-yl)phenyl]-2,3-dihydro-1,4-benzoxazepin-4(5H)-yl}carbonyl)piperidin-4-one] |
| ≤ 0.05 | ≤ 0.075 |  | O=C1CCN(C(=O)N2CCOc3ccc(-c4ccc(-c5ncc[nH]5)cc4)cc3C2)C(c2cccc(F)c2)C1 (stereo not shown) [Compound 55, 2-(3-fluorophenyl)-1-({7-[4-(1H-imidazol-2-yl)phenyl]-2,3-dihydro-1,4-benzoxazepin-4(5H)-yl}carbonyl)piperidin-4-one] |
| ≤ 0.05 | ≤ 0.075 |  | NC(=O)C1CCN(C(=O)N2CCOc3ccc(-c4cnc5nc(N)[nH]c5c4)cc3C2)CC1 [Compound 47, 1-{[7-(2-amino-1H-imidazo[4,5-b]pyridin-6-yl)-2,3-dihydro-1,4-benzoxazepin-4(5H)-yl]carbonyl}piperidine-4-carboxamide] |
| ≤ 0.05 | 0.075 to 0.2 |  | N#CC1CCN(C(=O)N2CCOc3ccc(-c4ccc(-c5ncc[nH]5)cc4)cc3C2)CC1 [Compound 61, 1-({7-[4-(1H-imidazol-2-yl)phenyl]-2,3-dihydro-1,4-benzoxazepin-4(5H)-yl}carbonyl)piperidine-4-carbonitrile] |
| ≤ 0.05 | ≤ 0.075 |  | O=C(N1CCOc2ccc(-c3ccc(-c4ncc[nH]4)cc3)cc2C1)N1[C@@H]2CC[C@H]1C[C@](O)(C(F)(F)F)C2 [Compound 59, 8-({7-[4-(1H-imidazol-2-yl)phenyl]-2,3-dihydro-1,4-benzoxazepin-4(5H)-yl}carbonyl)-3-(trifluoromethyl)-8-azabicyclo[3.2.1]octan-3-(endo)-ol] |

From patent publication US8637499B2, “Benzoxazepines as inhibitors of PI3K/mTOR and methods of their use and manufacture” (Exelixis, Inc., priority 2009, dated 2014)
